Like-named read-outs stand apart in the source and are kept apart here.
Experiments:
[1] = radiocontrast nephropathy, impaired renal excretory, endocrine and tubular function, cited from earlier work
[2] = treatment of oliguric prerenal acute renal failure, need for dialysis; assay type: in vivo, human; settings: patients with acute renal failure progressed to oliguria (less than 300 ml urine output per day)
Source text: Adenosine receptor antagonists, especially aminophyllline, are used to treat or prevent acute renal failure. Adenosine antagonists are suited for prerenal acute renal failure only.

[3] = patients, aminophylline toxicity; cited from earlier work
[4] = rat, glycerol-induced ARF, IV, administered before the toxic insult; cited from earlier work
[5] = human trials, radio-contrast renal injury, IV, administered before the toxic insult; cited from earlier work
[6] = cyclosporin-A-induced renal failure with renal vasoconstriction; cited from earlier work

## Cn1c(=O)c2[nH]cnc2n(C)c1=O [Theophyllin E]
[1]
  protective role in preventing RCN: effective in preventing RCN impaired renal excretory, endocrine and tubular function

## Cn1c(=O)c2[nH]cnc2n(C)c1=O [aminophylline]
[2]
  patients in whom the need for dialysis is obviated: over 50%
[3]
  serum theophylline level at which nausea and vomiting usually occur: around 20 micrograms/ml
[4]
  prevention of ARF: dramatic in preventing ARF
[1]; listed as Aminophylline
  protective role in preventing RCN: does not appear to add a protective role in preventing RCN
[5]
  prevention of ARF: dramatic in preventing ARF

## Cn1c(=O)c2[nH]cnc2n(C)c1=O [theophylline]
[6]
  restoration of renal function: restored renal function significantly

Source: US6998404B2, “Treatment or prevention of acute renal failure” (priority 2001, dated 2006)
